Measurements published in ChEMBL document CHEMBL3217466, “Synthesis and biological activity of hydroxybenzylidenyl pyrrolidine-2,5-dione derivatives as new potent inhibitors of tyrosinase” (Medchemcomm, 2011).

Experiments:
[1] = Cytotoxicity against mouse B16F10 cells assessed as cell viability at 0.2 uM after 48 hrs by MTT assay; format: cell-based, B16-F10; settings: read-out: Activity
[2] = target: T1, Tyrosinase (Mus musculus) (UniProt P11344); experiment: Inhibition of tyrosinase in mouse B16F10 cells assessed as rate of L-DOPA oxidation at 5 uM after 24 hrs by ELISA in presence of alpha-MSH (reference value: […]%); format: cell-based; design: scale not given: the % may be the effect or the level left; settings: B16-F10
T1 sequence (whole entry): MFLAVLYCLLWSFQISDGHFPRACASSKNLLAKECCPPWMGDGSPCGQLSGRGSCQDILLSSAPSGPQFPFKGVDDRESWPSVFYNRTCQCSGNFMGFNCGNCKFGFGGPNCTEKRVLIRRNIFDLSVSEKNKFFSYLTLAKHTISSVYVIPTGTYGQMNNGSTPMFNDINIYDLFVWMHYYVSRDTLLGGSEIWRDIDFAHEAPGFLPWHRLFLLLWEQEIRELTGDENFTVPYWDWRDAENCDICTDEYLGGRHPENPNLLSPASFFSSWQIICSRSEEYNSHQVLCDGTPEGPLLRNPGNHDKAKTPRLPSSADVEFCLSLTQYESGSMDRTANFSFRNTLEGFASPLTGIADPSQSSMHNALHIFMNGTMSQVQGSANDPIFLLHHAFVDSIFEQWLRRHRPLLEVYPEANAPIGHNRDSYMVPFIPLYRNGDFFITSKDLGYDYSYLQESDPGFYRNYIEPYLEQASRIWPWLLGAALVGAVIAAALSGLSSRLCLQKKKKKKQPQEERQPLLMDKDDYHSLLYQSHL

[3] = target: T2, Tyrosinase (Agaricus bisporus, UniProt O42713); experiment: Inhibition of mushroom tyrosinase assessed as decrease in dopachrome production using L-tyrosine as substrate by spectrophotometric analysis
T2 sequence (O42713 whole entry): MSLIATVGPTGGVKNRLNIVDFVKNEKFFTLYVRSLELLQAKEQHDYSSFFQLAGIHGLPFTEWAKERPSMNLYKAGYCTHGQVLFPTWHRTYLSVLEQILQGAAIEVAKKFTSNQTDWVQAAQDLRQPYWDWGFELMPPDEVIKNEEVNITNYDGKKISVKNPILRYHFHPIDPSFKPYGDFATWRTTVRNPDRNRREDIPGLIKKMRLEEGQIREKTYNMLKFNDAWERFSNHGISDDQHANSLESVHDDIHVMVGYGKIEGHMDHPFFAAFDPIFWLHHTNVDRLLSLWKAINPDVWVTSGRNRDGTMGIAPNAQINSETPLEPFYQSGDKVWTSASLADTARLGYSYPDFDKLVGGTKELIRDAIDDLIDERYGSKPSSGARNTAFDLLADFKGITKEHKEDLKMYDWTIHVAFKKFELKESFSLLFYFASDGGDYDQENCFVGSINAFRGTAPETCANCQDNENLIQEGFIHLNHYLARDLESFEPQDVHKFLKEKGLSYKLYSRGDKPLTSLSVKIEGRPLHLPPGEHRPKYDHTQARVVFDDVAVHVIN

[4] = Cytotoxicity against mouse B16F10 cells assessed as cell viability at 5 uM after 48 hrs by MTT assay; format: cell-based, B16-F10; settings: read-out: Activity
[5] = target: T2, Tyrosinase; experiment: Competitive inhibition of mushroom tyrosinase assessed as decrease in rate of dopachrome formation using L-tyrosine as substrate at 1.25 uM by Lineweaver-Burk plot analysis
[6] = test system: B16-F10; experiment: Inhibition of melanogenesis in mouse B16F10 cells assessed as melanin content at 1 uM after 24 hrs in presence of alpha-MSH (reference value: 241.87%); format: functional; design: scale not given: the % may be the effect or the level left
[7] = test system: B16-F10; experiment: Inhibition of melanogenesis in mouse B16F10 cells assessed as decrease in melanin content after 24 hrs in presence of alpha-MSH; format: functional, cell-based
[8] = target: T1, Tyrosinase (Mus musculus); experiment: Inhibition of tyrosinase in mouse B16F10 cells assessed as rate of L-DOPA oxidation at 2.5 uM after 24 hrs by ELISA in presence of alpha-MSH (reference value: […]%); format: cell-based; design: scale not given: the % may be the effect or the level left; settings: B16-F10
[9] = test system: B16-F10; experiment: Inhibition of melanogenesis in mouse B16F10 cells assessed as melanin content at 0.2 uM after 24 hrs in presence of alpha-MSH (reference value: 241.87%); format: functional; design: scale not given: the % may be the effect or the level left
[10] = test system: B16-F10; experiment: Inhibition of melanogenesis in mouse B16F10 cells assessed as melanin content at 2.5 uM after 24 hrs in presence of alpha-MSH (reference value: 241.87%); format: functional; design: scale not given: the % may be the effect or the level left
[11] = Cytotoxicity against mouse B16F10 cells assessed as cell viability at 10 uM after 48 hrs by MTT assay; format: cell-based, B16-F10; settings: read-out: Activity
[12] = test system: B16-F10; experiment: Inhibition of melanogenesis in mouse B16F10 cells assessed as melanin content at 5 uM after 24 hrs in presence of alpha-MSH (reference value: 241.87%); format: functional; design: scale not given: the % may be the effect or the level left
[13] = target: T1, Tyrosinase (Mus musculus); experiment: Inhibition of tyrosinase in mouse B16F10 cells assessed as rate of L-DOPA oxidation at 1 uM after 24 hrs by ELISA in presence of alpha-MSH (reference value: […]%); format: cell-based; design: scale not given: the % may be the effect or the level left; settings: B16-F10
[14] = target: T2, Tyrosinase; experiment: Competitive inhibition of mushroom tyrosinase assessed as decrease in rate of dopachrome formation using L-tyrosine as substrate at 20 uM by Lineweaver-Burk plot analysis
[15] = Cytotoxicity against mouse B16F10 cells assessed as cell viability at 1 uM after 48 hrs by MTT assay; format: cell-based, B16-F10; settings: read-out: Activity
[16] = target: T1, Tyrosinase (Mus musculus); experiment: Inhibition of tyrosinase in mouse B16F10 cells assessed as rate of L-DOPA oxidation at 10 uM after 24 hrs by ELISA in presence of alpha-MSH (reference value: […]%); format: cell-based; design: scale not given: the % may be the effect or the level left; settings: B16-F10
[17] = target: T1, Tyrosinase (Mus musculus); experiment: Inhibition of tyrosinase in mouse B16F10 cells assessed as rate of L-DOPA oxidation at 0.2 uM after 24 hrs by ELISA in presence of alpha-MSH (reference value: […]%); format: cell-based; design: scale not given: the % may be the effect or the level left; settings: B16-F10
[18] = Cytotoxicity against mouse B16F10 cells assessed as cell viability at 2.5 uM after 48 hrs by MTT assay; format: cell-based, B16-F10; settings: read-out: Activity
[19] = test system: B16-F10; experiment: Inhibition of melanogenesis in mouse B16F10 cells assessed as melanin content at 10 uM after 24 hrs in presence of alpha-MSH (reference value: 241.87%); format: functional; design: scale not given: the % may be the effect or the level left

Activity [2]: 101% | IC50 [3]: 2230 nM | Ki [5]: 424 nM | Activity [8]: 103% | Activity [13]: 177% | Ki [14]: 1820 nM | Activity [16]: 97.1% | Activity [17]: 224%
SMILES: COc1ccc(/C=C2\CC(=O)NC2=O)cc1O
viability at 48 h, 0.2 µM [1]: 99.5% | viability at 48 h, 5 µM [4]: 98.1% | Activity [6]: 231.69% | inhibition [7]: Dose-dependent effect | Activity [9]: 236.67% | Activity [10]: 113.11% | viability at 48 h, 10 µM [11]: 97.8% | Activity [12]: 103.74% | viability at 48 h, 1 µM [15]: 98.9% | viability at 48 h, 2.5 µM [18]: 98.4% | Activity [19]: 99.49%
